The values below come from patent US10704075B2, “Method for determining the reaction of a microorganism to its exposure to a chemical compound” (bioMérieux, priority 2015, dated 2020).

For experiment [1], the system named is Escherichia coli strain ATCC 25922 called "EC10". The experiment can be described thus: Reference methods (bioMérieux ETEST and VITEK card N233), strain EC10. The settings on record: for phenotype according to the EUCAST / reference: from reference MIC. It counts as cell-based. The text has this:
In order to illustrate the performances obtained accordingly, the average score obtained for all the results that would be obtained with a combination of 5 spectra per concentration (N=5) out of a total set of total acquired spectra of 294 spectra (M=294) is shown in FIG. 4. […] The score indicates the percentage of the test samples that are assigned to a given class by the classifier described above. […] The strain can therefore be described as sensitive according to the invention with a high reliability on the basis of only a few individual bacteria analyses. The result is consistent with the reference methods [BioMérieux products ETEST® (antimicrobial susceptibility testing kit) GM 256 (ref. 412368) and VITEK® card N233 (Gram Negative Susceptibility card; ref. 413117)] which give as a result a MIC=1 μg/mL, which confirms that the bacterium is not resistant according to the EUCAST, its MIC not being strictly above the threshold defined by this organism.
A MIC comprised between 4 μg/mL and 8 μg/mL can therefore be assigned to this strain according to the assays. This variability to a dilution factor is very frequent in this type of assay, the EUCAST indicates, for example, ranges of MIC variations of [2-8]μg/mL for this strain ATCC 25922 during quality controls of the MIC disc diffusion tests, and is therefore consistent with expected results.
The detection of an effect for concentrations greater than 0.005 μg/mL is thus observed. An antibiotic effect of ciprofloxacin can therefore be assigned to the strain tested for concentrations greater than 0.005 μg/mL. This test would therefore define a concentration of 0.005 μg/mL as a MIC. A new test could possibly be performed by adding the lowest concentrations between 0 and 0.005 μg/mL if necessary. […] A test performed with a suitable etest (bioMérieux) allows measuring a MIC of 0.008 μg/mL which confirms that the obtained result is in accordance with the reference methods [BioMérieux products ETEST® CI 32 (antimicrobial susceptibility testing kit; ref. 412311) and VITEK® card N233 (Gram Negative Susceptibility card; ref. 413117)].

A further experiment deals with E. coli. As to conditions: cited from earlier work.
Experiment [2] deals with Escherichia coli strain ATCC 25922. As to conditions: quality control range; cited from earlier work.

As for gentamicin, the “MIC (reference methods, MICREF)” value in experiment [1] (ETEST / VITEK card N233) stood at 1 µg/mL. For the same molecule, the “phenotype according to the EUCAST / reference” value in experiment [1] is “not resistant”. The “typical MIC, or epidemiological cut-off of the species” value in the experiment with E. coli is given as 2 μg/mL.
As for `CC1(C)S[C@@H]2[C@H](NC(=O)[C@H](N)c3ccc(O)cc3)C(=O)N2[C@H]1C(=O)O` [amoxicillin], the MIC in experiment [1] (Escherichia coli, ATCC25922, read-out: MIC (reference methods, MICREF)) worked out at 6 µg/mL. Moreover, the “phenotype according to the EUCAST / reference” value in experiment [1] was “sensitive”. For the same molecule, the “EUCAST range of MIC variations (acceptable variation range)” value in experiment [2] was 2 to 8 µg/mL.
